Source: patent US20210353593A1 (Chinook Therapeutics, Inc., priority 2019, published 2021)

System: canonical signaling pathways in kidney tissue of g-ddY mice
Assay: Ingenuity Pathway Analysis (IPA) canonical pathways, g-ddY mouse kidney RNA-seq
Assay type: in vivo

With CCCCN(CCCC)C(=O)CN1C[C@H](c2ccc3c(c2)OCO3)[C@@H](C(=O)O)[C@@H]1c1ccc(OC)cc1 [Atrasentan, (2R,3R,4S)-4-(1,3-benzodioxol-5-yl)-1-[2-(dibutylamino)-2-oxoethyl]-2-(4-methoxyphenyl)pyrrolidine-3-carboxylic acid] the “Acute Myeloid Leukemia Signaling z-score” value (10 mg/kg/day) was −0.258, the “Acute Phase Response Signaling z-score” value (10 mg/kg/day) was −1.177 and the “Apelin Cardiac Fibroblast Signaling Pathway z-score” value (10 mg/kg/day) was 1.134. For the same compound, the “CXCR4 Signaling z-score” value (10 mg/kg/day) was 0, the “Cardiac Hypertrophy Signaling (Enhanced) z-score” value (from here on “Cardiac Hypertrophy Signaling”) (10 mg/kg/day) was 0.361 and the “Folate Polyglutamylation z-score” value (10 mg/kg/day) was −1. For the same compound, the “GM-CSF Signaling z-score” value (10 mg/kg/day) was −0.243, the “GP6 Signaling Pathway z-score” value (10 mg/kg/day) was 0 and the “Glioblastoma Multiforme Signaling z-score” value (10 mg/kg/day) was 1. The “Glioma Signaling z-score” value (10 mg/kg/day) was 0.5, the “Gluconeogenesis I z-score” value (10 mg/kg/day) was 0.905 and the “Glutathione Redox Reactions I z-score” value (10 mg/kg/day) was −0.302. For the same compound, the “Glycolysis I z-score” value (10 mg/kg/day) was 0.577, the “Gα12/13 Signaling z-score” value (10 mg/kg/day) was −1.279 and the “Gαg Signaling z-score” value (10 mg/kg/day) was 1. The “HGF Signaling z-score” value (10 mg/kg/day) was −0.688, the “Hepatic Fibrosis Signaling Pathway z-score” value (10 mg/kg/day) was −0.25 and the “IGF-1 Signaling z-score” value (10 mg/kg/day) was 0.243. For the same compound, the “IL-8 Signaling z-score” value (10 mg/kg/day) was 0.365, the “Integrin Signaling z-score” value (10 mg/kg/day) was −0.928 and the “LPS/IL-1 Mediated Inhibition of RXR Function z-score” value (“LPS/IL-1 Mediated Inhibition” below) (10 mg/kg/day) was 0.535. For the same compound, the “Lymphotoxin β Receptor Signaling z-score” value (10 mg/kg/day) was −1.508, the “Macropinocytosis Signaling z-score” value (10 mg/kg/day) was 0.277 and the “NF-κB Activation by Viruses z-score” value (10 mg/kg/day) was 0. For the same compound, the “NF-κB Signaling z-score” value (10 mg/kg/day) was 0.507, the “NRF2-mediated Oxidative Stress Response z-score” value (10 mg/kg/day) was 0.471 and the “Oxidative Phosphorylation z-score” value (10 mg/kg/day) was −0.309. The “PDGF Signaling z-score” value (10 mg/kg/day) was −0.5, the “PEDF Signaling z-score” value (10 mg/kg/day) was 0 and the “PI3K Signaling in B Lymphocytes z-score” value (10 mg/kg/day) was 0.426. For the same compound, the “PI3K/AKT Signaling z-score” value (10 mg/kg/day) was 0.447, the “PTEN Signaling z-score” value (10 mg/kg/day) was −0.426 and the “Paxillin Signaling z-score” value (10 mg/kg/day) was −1. For the same compound, the “Relaxin Signaling z-score” value (10 mg/kg/day) was −0.535, the “STAT3 Pathway z-score” value (10 mg/kg/day) was −0.218 and the “Sirtuin Signaling Pathway z-score” value (10 mg/kg/day) was 0.849. The “Small Cell Lung Cancer Signaling z-score” value (10 mg/kg/day) was −0.905, the “Sperm Motility z-score” value (10 mg/kg/day) was 1.213 and the “Sphingosine-1-phosphate Signaling z-score” value (10 mg/kg/day) was −0.218. The “TCA Cycle II (Eukalyotic) z-score” value (10 mg/kg/day) was 0.277, the “TNFR2 Signaling z-score” value (10 mg/kg/day) was −1.89 and the “Thrombin Signaling z-score” value (10 mg/kg/day) was 1.3. For the same compound, the “Toll-like Receptor Signaling z-score” value (10 mg/kg/day) was −0.302, the “Tryptophan Degradation III (Eukalyotic) z-score” value (“Tryptophan Degradation III” below) (10 mg/kg/day) was 0.378 and the “Xenobiotic Metabolism General Signaling Pathway z-score” value (10 mg/kg/day) was −0.577. The “Acute Myeloid Leukemia Signaling z-score” value (20 mg/kg/day) was −0.853, the “Acute Phase Response Signaling z-score” value (20 mg/kg/day) was −1.298 and the “Apelin Cardiac Fibroblast Signaling Pathway z-score” value (20 mg/kg/day) was 0.577. For the same compound, the “CXCR4 Signaling z-score” value (20 mg/kg/day) was 0.333, the “Cardiac Hypertrophy Signaling” value (20 mg/kg/day) was −0.396 and the “Folate Polyglutamylation z-score” value (20 mg/kg/day) was 0.447. The “GM-CSF Signaling z-score” value (20 mg/kg/day) was −1.46, the “GP6 Signaling Pathway z-score” value (20 mg/kg/day) was −1.715 and the “Glioblastoma Multiforme Signaling z-score” value (20 mg/kg/day) was −0.16. For the same compound, the “Glioma Signaling z-score” value (20 mg/kg/day) was −0.816, the “Gluconeogenesis I z-score” value (20 mg/kg/day) was −0.302 and the “Glutathione Redox Reactions I z-score” value (20 mg/kg/day) was −0.277. For the same compound, the “Glycolysis I z-score” value (20 mg/kg/day) was 0, the “Gα12/13 Signaling z-score” value (20 mg/kg/day) was −0.707 and the “Gαg Signaling z-score” value (20 mg/kg/day) was −0.822. For the same compound, the “HGF Signaling z-score” value (20 mg/kg/day) was 0, the “Hepatic Fibrosis Signaling Pathway z-score” value (20 mg/kg/day) was −3.181 and the “IGF-1 Signaling z-score” value (20 mg/kg/day) was −0.408. The “IL-8 Signaling z-score” value (20 mg/kg/day) was −0.905, the “Integrin Signaling z-score” value (20 mg/kg/day) was −1.342 and the “LPS/IL-1 Mediated Inhibition” value (20 mg/kg/day) was 0.626. For the same compound, the “Lymphotoxin β Receptor Signaling z-score” value (20 mg/kg/day) was −1.291, the “Macropinocytosis Signaling z-score” value (20 mg/kg/day) was 0.243 and the “NF-κB Activation by Viruses z-score” value (20 mg/kg/day) was −0.816. The “NF-κB Signaling z-score” value (20 mg/kg/day) was −1.313, the “NRF2-mediated Oxidative Stress Response z-score” value (20 mg/kg/day) was −0.392 and the “Oxidative Phosphorylation z-score” value (20 mg/kg/day) was −0.283. The “PDGF Signaling z-score” value (20 mg/kg/day) was −2.353, the “PEDF Signaling z-score” value (20 mg/kg/day) was −1.043 and the “PI3K Signaling in B Lymphocytes z-score” value (20 mg/kg/day) was −1.333. The “PI3K/AKT Signaling z-score” value (20 mg/kg/day) was −0.18, the “PTEN Signaling z-score” value (20 mg/kg/day) was 1.029 and the “Paxillin Signaling z-score” value (20 mg/kg/day) was −0.626. The “Relaxin Signaling z-score” value (20 mg/kg/day) was −0.853, the “STAT3 Pathway z-score” value (20 mg/kg/day) was 0.192 and the “Sirtuin Signaling Pathway z-score” value (20 mg/kg/day) was 0.62. The “Small Cell Lung Cancer Signaling z-score” value (20 mg/kg/day) was −1.886, the “Sperm Motility z-score” value (20 mg/kg/day) was 1.633 and the “Sphingosine-1-phosphate Signaling z-score” value (20 mg/kg/day) was −0.73. The “TCA Cycle II (Eukalyotic) z-score” value (20 mg/kg/day) was −0.535, the “TNFR2 Signaling z-score” value (20 mg/kg/day) was 0 and the “Thrombin Signaling z-score” value (20 mg/kg/day) was −0.926. The “Toll-like Receptor Signaling z-score” value (20 mg/kg/day) was −0.258, the “Tryptophan Degradation III” value (20 mg/kg/day) was −1.265 and the “Xenobiotic Metabolism General Signaling Pathway z-score” value (20 mg/kg/day) was −1.581. For the same compound, the “Acute Myeloid Leukemia Signaling z-score” value (30 mg/kg/day) was −1.134, the “Acute Phase Response Signaling z-score” value (30 mg/kg/day) was −2.832 and the “Apelin Cardiac Fibroblast Signaling Pathway z-score” value (30 mg/kg/day) was 1.732. The “CXCR4 Signaling z-score” value (30 mg/kg/day) was −2.214, the “Cardiac Hypertrophy Signaling” value (30 mg/kg/day) was −6.236 and the “Folate Polyglutamylation z-score” value (30 mg/kg/day) was 1.342. For the same compound, the “GM-CSF Signaling z-score” value (30 mg/kg/day) was −1.225, the “GP6 Signaling Pathway z-score” value (30 mg/kg/day) was −4.938 and the “Glioblastoma Multiforme Signaling z-score” value (30 mg/kg/day) was −3.464. The “Glioma Signaling z-score” value (30 mg/kg/day) was −2.353, the “Gluconeogenesis I z-score” value (30 mg/kg/day) was 3.464 and the “Glutathione Redox Reactions I z-score” value (30 mg/kg/day) was 2.496. For the same compound, the “Glycolysis I z-score” value (30 mg/kg/day) was 3.051, the “Gα12/13 Signaling z-score” value (30 mg/kg/day) was −0.949 and the “Gαg Signaling z-score” value (30 mg/kg/day) was −2.16. The “HGF Signaling z-score” value (30 mg/kg/day) was −3.182, the “Hepatic Fibrosis Signaling Pathway z-score” value (30 mg/kg/day) was −5.058 and the “IGF-1 Signaling z-score” value (30 mg/kg/day) was −1.633. The IL-6 signaling (30 mg/kg/day) was “reduced”, the “IL-8 Signaling z-score” value (30 mg/kg/day) was −2.828 and the “Integrin Signaling z-score” value (30 mg/kg/day) was −3.311. For the same compound, the “LPS/IL-1 Mediated Inhibition” value (30 mg/kg/day) was −2.746, the “Lymphotoxin β Receptor Signaling z-score” value (30 mg/kg/day) was −2.183 and the “Macropinocytosis Signaling z-score” value (30 mg/kg/day) was −2.828. For the same compound, the “NF-κB Activation by Viruses z-score” value (30 mg/kg/day) was −3.9, the “NF-κB Signaling z-score” value (30 mg/kg/day) was −4.636 and the NF-κB signaling (30 mg/kg/day) was “reduced”. For the same compound, the “NRF2-mediated Oxidative Stress Response z-score” value (30 mg/kg/day) was 1.3, the “Oxidative Phosphorylation z-score” value (30 mg/kg/day) was 7.02 and the “PDGF Signaling z-score” value (30 mg/kg/day) was −3.528. For the same compound, the PDGF signaling (30 mg/kg/day) was “reduced”, the “PEDF Signaling z-score” value (30 mg/kg/day) was −3.922 and the “PI3K Signaling in B Lymphocytes z-score” value (30 mg/kg/day) was −4.041. For the same compound, the “PI3K/AKT Signaling z-score” value (30 mg/kg/day) was −1.947, the “PTEN Signaling z-score” value (30 mg/kg/day) was 2.214 and the “Paxillin Signaling z-score” value (30 mg/kg/day) was −2.268. The “Relaxin Signaling z-score” value (30 mg/kg/day) was −2.449, the “STAT3 Pathway z-score” value (30 mg/kg/day) was −2.556 and the “Sirtuin Signaling Pathway z-score” value (30 mg/kg/day) was −1.254. For the same compound, the “Small Cell Lung Cancer Signaling z-score” value (30 mg/kg/day) was −2.236, the “Sperm Motility z-score” value (30 mg/kg/day) was −2.263 and the “Sphingosine-1-phosphate Signaling z-score” value (30 mg/kg/day) was −1.808. The “TCA Cycle II (Eukalyotic) z-score” value (30 mg/kg/day) was 3.207, the “TNFR2 Signaling z-score” value (30 mg/kg/day) was −1.291 and the “Thrombin Signaling z-score” value (30 mg/kg/day) was −2.828. The “Toll-like Receptor Signaling z-score” value (30 mg/kg/day) was −2.982, the “Tryptophan Degradation III” value (30 mg/kg/day) was 3.742 and the “Xenobiotic Metabolism General Signaling Pathway z-score” value (30 mg/kg/day) was −0.152.
